In ChEMBL document CHEMBL3272187, “Synthesis of N-hydroxyacetaminophen, a postulated toxic metabolite of acetaminophen, and its phenolic sulfate conjugate” (J Med Chem, 1978):

Tests used:
Assay type in all cases: physicochemical
[1] = Aqueous stability of the compound in 100 mM HCl buffer assessed as half life at 2 mM at pH 1.5 at 37 degC by ferric chloride assay
[2] = Aqueous stability of the compound in 100 mM Na2HPO4 buffer assessed as half life at 2 mM at pH 6.6 at 37 degC by ferric chloride assay
[3] = Aqueous stability of the compound in 100 mM Na2HPO4 buffer assessed as half life at 2 mM at pH 7.0 at 37 degC by ferric chloride assay
[4] = Aqueous stability of the compound in 100 mM Na2HPO4 buffer assessed as half life at 2 mM at pH 7.2 at 37 degC by ferric chloride assay
[5] = Aqueous stability of the compound in 100 mM Na2HPO4 buffer assessed as half life at 2 mM at pH 8.0 at 37 degC by ferric chloride assay
[6] = Aqueous stability of the compound in 100 mM NaOH buffer at 2 mM at pH 12.7 at 37 degC by ferric chloride assay; settings: pH 12.7, 2000 µM
[7] = Aqueous stability of the compound in 100 mM Na2HPO4 buffer assessed as half life at 2 mM at pH 8.5 at 37 degC by ferric chloride assay

| Compound | half-life at 2000 µM [1] [h] | half-life at 2000 µM [2] [h] | half-life at 2000 µM [3] [h] | half-life at 2000 µM [4] [h] | half-life at 2000 µM [5] [min] | Stability [6] | half-life at 2000 µM [7] [h] |
| --- | --- | --- | --- | --- | --- | --- | --- |
| CC(=O)N(O)c1ccc(O)cc1 | 18.3 | 2.5 | 1.1 | 0.35 | 9.8 | Stable |  |
| CC(=O)N(O)c1ccc(OS(=O)(=O)[O-])cc1.[K+] | 15.2 |  |  |  |  | Stable | 217 |
